Assay results as given in patent US20260327246A1, “FUSED RING KRAS INHIBITORS FOR TREATING DISEASE” (BLOSSOMHILL THERAPEUTICS, INC., priority 2023, published 2026).

Tests used:
GP2D (KRAS G12D) = test: Cell Proliferation Assay (CellTiter-Glo 2.0), GP2D; assay type: cell-based; details: GP2D (KRAS G12D) cells; 72 hours at 37° C., 5% CO2; read-out: Anti-proliferation IC50, GP2D (KRAS G12D)
Method: (§1) Two thousand KRAS mutant cells per well are seeded in 384-well white plate and then treated with indicated compounds for 72 hours at 37° C. and 5% CO2. Cell proliferation is measured using CellTiter-Glo 2.0 luciferase-based ATP detection assay (Promega, Madison, WI) following the manufacturer's protocol. IC50 values are determined using Prism software (GraphPad Software, San Diego, CA).

SW620 (KRAS G12V) = test: Cell Proliferation Assay (CellTiter-Glo 2.0), SW620; assay type: cell-based; details: Homo sapiens, SW-620; SW620 (KRAS G12V) cells; 72 hours at 37° C., 5% CO2; read-out: Anti-proliferation IC50, SW620 (KRAS G12V)
Method: as §1

| SMILES | IC50 (GP2D (KRAS G12D)) | IC50 (SW620 (KRAS G12V)) |
| --- | --- | --- |
| C#Cc1c(F)ccc2cc(O)cc(-c3nc4c5c(nc(OC[C@@]67CCCN6C[C@H](F)C7)nc5c3F)N3CCCCC3=C4C)c12 [compound 30, 5-ethynyl-6-fluoro-4-(4-fluoro-2-{[(2R,7aS)-2-fluorotetrahydro-1H-pyrrolizin-7a(5H)-yl]methoxy}-7-methyl-8,9,10,11-tetrahydropyrido[1,2-g]pyrimido[4,5,6-de][1,6]naphthyridin-5-yl)naphthalen-2-ol] | 819 nM | 1720 nM |
| C#Cc1c(F)ccc2cc(O)cc(-c3nc4c5c(nc(OC[C@@]67CCCN6C[C@H](F)C7)nc5c3F)N3CCCC[C@H]3CC4)c12 [compound 20, 5-ethynyl-6-fluoro-4-[(8aS)-4-fluoro-2-{[(2R,7aS)-2-fluorotetrahydro-1H-pyrrolizin-7a(5H)-yl]methoxy}-8,8a,9,10,11,12-hexahydro-7H-1,3,6,12a-tetraazabenzo[4,5]cyclohepta[1,2,3-de]naphthalen-5-yl]naphthalen-2-ol] | 10 nM | 47 nM |
| C#Cc1c(F)ccc2cc(O)cc(-c3nc4c5c(nc(OC[C@@]67CCCN6C[C@H](F)C7)nc5c3F)N3CCC[C@H]3COC4)c12 [compound 10, 5-ethynyl-6-fluoro-4-[(6aS)-1-fluoro-11-{[(2R,7aS)-2-fluorotetrahydro-1H-pyrrolizin-7a(5H)-yl]methoxy}-6a,7,8,9-tetrahydro-4H,6H-5-oxa-3,9a,10,12-tetraazacyclopenta[4,5]cycloocta[1,2,3-de]naphthalen-2-yl]naphthalen-2-ol] | 3000 nM | 3000 nM |
| CCc1c(F)ccc2cc(O)cc(-c3nc4c5c(nc(OC[C@@]67CCCN6C[C@H](F)C7)nc5c3F)N3CCCOC[C@@H]3CC4)c12 [compound 4, 5-ethyl-6-fluoro-4-[(8aS)-4-fluoro-2-{[(2R,7aS)-2-fluorotetrahydro-1H-pyrrolizin-7a(5H)-yl]methoxy}-7,8,8a,9,12,13-hexahydro-11H-10-oxa-1,3,6,13a-tetraazanaphtho[1,8-ab]heptalen-5-yl]naphthalen-2-ol] | 135 nM | 304 nM |
| CCc1c(F)ccc2cc(O)cc(-c3nc4c5c(nc(OC[C@@]67CCCN6C[C@H](F)C7)nc5c3F)N3CCOCC[C@H]3CC4)c12 [compound 6, 5-ethyl-6-fluoro-4-[(8aR)-4-fluoro-2-{[(2R,7aS)-2-fluorotetrahydro-1H-pyrrolizin-7a(5H)-yl]methoxy}-8,8a,9,10,12,13-hexahydro-7H-11-oxa-1,3,6,13a-tetraazanaphtho[1,8-ab]heptalen-5-yl]naphthalen-2-ol] | 21 nM | 26 nM |
| CCc1c(F)ccc2cc(O)cc(-c3nc4c5c(nc(OC[C@@]67CCCN6C[C@H](F)C7)nc5c3F)N3CCOCC[C@@H]3CC4)c12 [compound 26, 5-ethyl-6-fluoro-4-[(8aS)-4-fluoro-2-{[(2R,7aS)-2-fluorotetrahydro-1H-pyrrolizin-7a(5H)-yl]methoxy}-8,8a,9,10,12,13-hexahydro-7H-11-oxa-1,3,6,13a-tetraazanaphtho[1,8-ab]heptalen-5-yl]naphthalen-2-ol] | 321 nM | 557 nM |
| C#Cc1c(F)ccc2cc(O)cc(-c3nc4c5c(nc(OC[C@@]67CCCN6C[C@H](F)C7)nc5c3F)N3CCCCC3C=C4)c12 (stereo partly drawn) [compound 21, 5-ethynyl-6-fluoro-4-(4-fluoro-2-{[(2R,7aS)-2-fluorotetrahydro-1H-pyrrolizin-7a(5H)-yl]methoxy}-9,10,11,12-tetrahydro-8aH-1,3,6,12a-tetraazabenzo[4,5]cyclohepta[1,2,3-de]naphthalen-5-yl)naphthalen-2-ol] | 2.9 nM | 20 nM |
| C#Cc1c(F)ccc2cc(O)cc(-c3nc4c5c(nc(OCC6(CN(C)C)CC6(F)F)nc5c3F)N3CCCCC3CC4)c12 (centres unmarked) [compound 24, 4-[2-({1-[(dimethylamino)methyl]-2,2-difluorocyclopropyl}methoxy)-4-fluoro-8,8a,9,10,11,12-hexahydro-7H-1,3,6,12a-tetraazabenzo[4,5]cyclohepta[1,2,3-de]naphthalen-5-yl]-5-ethynyl-6-fluoronaphthalen-2-ol] | 23 nM | 91 nM |
| C#Cc1c(F)ccc2cc(O)cc(-c3nc4c5c(nc(OC[C@@]67CCCN6C[C@H](F)C7)nc5c3F)N3CCOC[C@H]3C4)c12 [compound 18, 5-ethynyl-6-fluoro-4-((R)-4-fluoro-2-(((2R,7aS)-2-fluorotetrahydro-1H-pyrrolizin-7a(5H)-yl)methoxy)-7a,8,10,11-tetrahydro-7H-[1,4]oxazino[4,3-g]pyrimido[4,5,6-de][1,6]naphthyridin-5-yl)naphthalen-2-ol] | 123 nM | 130 nM |
| CCc1c(F)ccc2cc(O)cc(-c3nc4c5c(nc(OC[C@@]67CCCN6C[C@H](F)C7)nc5c3F)N3CCCCC3C=C4)c12 (stereo partly drawn) [compound 31, 5-ethyl-6-fluoro-4-(4-fluoro-2-{[(2R,7aS)-2-fluorotetrahydro-1H-pyrrolizin-7a(5H)-yl]methoxy}-9,10,11,12-tetrahydro-8aH-1,3,6,12a-tetraazabenzo[4,5]cyclohepta[1,2,3-de]naphthalen-5-yl)naphthalen-2-ol] | 136 nM | 591 nM |
| C#Cc1c(F)ccc2cc(O)cc(-c3nc4c5c(nc(OC[C@@]67CCCN6C[C@H](F)C7)nc5c3F)N3CCCCC3C(O)C4)c12 (stereo partly drawn) [compound 29, 5-(8-ethynyl-7-fluoro-3-hydroxynaphthalen-1-yl)-4-fluoro-2-{[(2R,7aS)-2-fluorotetrahydro-1H-pyrrolizin-7a(5H)-yl]methoxy}-8,8a,9,10,11,12-hexahydro-7H-1,3,6,12a-tetraazabenzo[4,5]cyclohepta[1,2,3-de]naphthalen-8-ol] | 14 nM | 142 nM |
| C#Cc1c(F)ccc2cc(O)cc(-c3nc4c5c(nc(OC[C@@]67CCCN6C[C@H](F)C7)nc5c3F)N3CCCCC3C(C#N)C4)c12 (stereo partly drawn) [compound 28, 5-(8-ethynyl-7-fluoro-3-hydroxynaphthalen-1-yl)-4-fluoro-2-{[(2R,7aS)-2-fluorotetrahydro-1H-pyrrolizin-7a(5H)-yl]methoxy}-8,8a,9,10,11,12-hexahydro-7H-1,3,6,12a-tetraazabenzo[4,5]cyclohepta[1,2,3-de]naphthalene-8-carbonitrile] | 61 nM | 787 nM |
| C#Cc1c(F)ccc2cc(O)cc(-c3nc4c5c(nc(OC[C@@]67CCCN6C[C@H](F)C7)nc5c3F)N3CCCC[C@@H]3CC4)c12 [compound 27, 5-ethynyl-6-fluoro-4-[(8aR)-4-fluoro-2-{[(2R,7aS)-2-fluorotetrahydro-1H-pyrrolizin-7a(5H)-yl]methoxy}-8,8a,9,10,11,12-hexahydro-7H-1,3,6,12a-tetraazabenzo[4,5]cyclohepta[1,2,3-de]naphthalen-5-yl]naphthalen-2-ol] | 10 nM | 32 nM |
| C#Cc1c(F)ccc2cc(O)cc(-c3nc4c5c(nc(OC[C@@]67CCCN6C[C@H](F)C7)nc5c3F)N3CCCC[C@H]3C4)c12 [compound 13, 5-ethynyl-6-fluoro-4-((S)-4-fluoro-2-(((2R,7aS)-2-fluorotetrahydro-1H-pyrrolizin-7a(5H)-yl)methoxy)-7,7a,8,9,10,11-hexahydropyrido[1,2-g]pyrimido[4,5,6-de][1,6]naphthyridin-5-yl)naphthalen-2-ol] | 3.9 nM | 39 nM |
| CCc1c(F)ccc2cc(O)cc(-c3nc4c5c(nc(OC[C@@]67CCCN6C[C@H](F)C7)nc5c3F)N3CCCCCC3CC4)c12 (stereo partly drawn) [compound 23, 5-ethyl-6-fluoro-4-(4-fluoro-2-{[(2R,7aS)-2-fluorotetrahydro-1H-pyrrolizin-7a(5H)-yl]methoxy}-7,8,8a,9,10,11,12,13-octahydro-1,3,6,13a-tetraazanaphtho[1,8-ab]heptalen-5-yl)naphthalen-2-ol] | 172 nM | 1450 nM |
| C#Cc1c(F)ccc2cc(O)cc(-c3nc4c5c(nc(OC[C@@]67CCCN6C[C@H](F)C7)nc5c3F)N3CCCOC[C@@H]3CC4)c12 [compound 2, 5-ethynyl-6-fluoro-4-[(8aS)-4-fluoro-2-{[(2R,7aS)-2-fluorotetrahydro-1H-pyrrolizin-7a(5H)-yl]methoxy}-7,8,8a,9,12,13-hexahydro-11H-10-oxa-1,3,6,13a-tetraazanaphtho[1,8-ab]heptalen-5-yl]naphthalen-2-ol] | 85 nM | 592 nM |
| C#Cc1c(F)ccc2cc(O)cc(-c3nc4c5c(nc(OC[C@@]67CCCN6C[C@H](F)C7)nc5c3F)N3CCCC[C@H]3COC4)c12 [compound 9, 5-ethynyl-6-fluoro-4-[(6aS)-1-fluoro-12-{[(2R,7aS)-2-fluorotetrahydro-1H-pyrrolizin-7a(5H)-yl]methoxy}-6,6a,7,8,9,10-hexahydro-4H-5-oxa-3,10a,11,13-tetraazabenzo[4,5]cycloocta[1,2,3-de]naphthalen-2-yl]naphthalen-2-ol] | 102 nM | 641 nM |
| C=Cc1c(F)ccc2cc(O)cc(-c3nc4c5c(nc(OC[C@@]67CCCN6C[C@H](F)C7)nc5c3F)N3CCCCC3C(C#N)C4)c12 (stereo partly drawn) [compound 32, 5-(8-ethenyl-7-fluoro-3-hydroxynaphthalen-1-yl)-4-fluoro-2-{[(2R,7aS)-2-fluorotetrahydro-1H-pyrrolizin-7a(5H)-yl]methoxy}-8,8a,9,10,11,12-hexahydro-7H-1,3,6,12a-tetraazabenzo[4,5]cyclohepta[1,2,3-de]naphthalene-8-carbonitrile] | 461 nM | 2040 nM |
| C#Cc1c(F)ccc2cc(O)cc(-c3nc4c5c(nc(OC[C@@]67CCCN6C[C@H](F)C7)nc5c3F)N3CCCOC[C@H]3CC4)c12 [compound 1, 5-ethynyl-6-fluoro-4-[(8aR)-4-fluoro-2-{[(2R,7aS)-2-fluorotetrahydro-1H-pyrrolizin-7a(5H)-yl]methoxy}-7,8,8a,9,12,13-hexahydro-11H-10-oxa-1,3,6,13a-tetraazanaphtho[1,8-ab]heptalen-5-yl]naphthalen-2-ol] | 1.1 nM | 3.6 nM |
